Source: paper PMC9401864, “Cell‐Free Protein Synthesis for the Screening of Novel Azoreductases and Their Preferred Electron Donor” (Chembiochem, 2022)

Legend:
Type in all cases: biochemical
EfaeAzoR [1] = biological target: T1, EfaeAzoR (Enterococcus faecalis, UniProt Q831B2); experiment: methyl red degradation at […] nm with NADH as electron donor, reconstituted cell-free (PURE) mix; settings: 30 uM methyl red; 150 uM NADH; 50 uM FMN; 100 mM sodium phosphate pH 6; 25 °C
T1 construct: gene azoR; codon-optimised gene in pET-24a(+); cell-free synthesis (PUREfrex2.0), unpurified
T1 sequence (Q831B2 whole entry): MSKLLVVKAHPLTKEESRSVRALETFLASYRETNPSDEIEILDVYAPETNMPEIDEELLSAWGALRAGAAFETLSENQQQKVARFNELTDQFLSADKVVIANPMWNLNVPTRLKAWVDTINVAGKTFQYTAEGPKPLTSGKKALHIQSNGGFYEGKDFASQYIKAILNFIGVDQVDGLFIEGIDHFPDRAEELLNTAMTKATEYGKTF

StypAzoR [2] = biological target: T2, StypAzoR (Salmonella enterica, UniProt P63462); experiment: Brilliant Black degradation at […] nm, reconstituted cell-free (PURE) mix; settings: 150 uM NADH; 50 uM FMN; 100 mM sodium phosphate pH 6; 25 °C; 30 uM dye
T2 construct: gene azoR; codon-optimised gene in pET-24a(+); cell-free synthesis (PUREfrex2.0), unpurified
T2 sequence (P63462 2-201): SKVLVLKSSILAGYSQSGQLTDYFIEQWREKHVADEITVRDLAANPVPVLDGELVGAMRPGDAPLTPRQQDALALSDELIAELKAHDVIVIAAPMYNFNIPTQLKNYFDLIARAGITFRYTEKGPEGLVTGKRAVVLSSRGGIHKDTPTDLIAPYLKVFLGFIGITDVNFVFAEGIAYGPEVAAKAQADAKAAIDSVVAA

RferAzoR [3] = biological target: T3, RferAzoR (Rhodoferax ferrireducens, UniProt Q220J4); experiment: as above; settings: 150 uM NADH; 50 uM FMN; 100 mM sodium phosphate pH 6; 25 °C; 30 uM dye
T3 construct: gene azoR; codon-optimised gene in pET-24a(+); cell-free synthesis (PUREfrex2.0), unpurified
T3 sequence (Q220J4 1-203): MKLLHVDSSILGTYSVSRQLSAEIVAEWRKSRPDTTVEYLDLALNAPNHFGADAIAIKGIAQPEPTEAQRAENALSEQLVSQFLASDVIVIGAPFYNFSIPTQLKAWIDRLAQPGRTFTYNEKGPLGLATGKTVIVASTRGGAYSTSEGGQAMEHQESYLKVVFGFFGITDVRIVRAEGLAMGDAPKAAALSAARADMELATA

TvarAzoR [4] = biological target: T4, TvarAzoR (Trichormus variabilis, UniProt Q3M1N6); experiment: as above; settings: 150 uM NADH; 50 uM FMN; 100 mM sodium phosphate pH 6; 25 °C; 30 uM dye
T4 construct: gene azoR1; codon-optimised gene in pET-24a(+); cell-free synthesis (PUREfrex2.0), unpurified
T4 sequence (Q3M1N6 1-207): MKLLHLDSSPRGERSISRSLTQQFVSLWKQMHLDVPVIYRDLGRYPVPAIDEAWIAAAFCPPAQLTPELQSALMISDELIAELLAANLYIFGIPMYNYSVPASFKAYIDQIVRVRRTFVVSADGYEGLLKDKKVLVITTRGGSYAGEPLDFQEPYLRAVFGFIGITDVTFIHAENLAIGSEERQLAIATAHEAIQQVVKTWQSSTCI

RopaAzoR [5] = biological target: T5, RopaAzoR (Rhodococcus opacus, UniProt A0A1B1KJ01); experiment: as above; settings: 150 uM NADH; 50 uM FMN; 100 mM sodium phosphate pH 6; 25 °C; 30 uM dye
T5 construct: gene azoR; cell-free synthesis (PUREfrex2.0), unpurified
T5 sequence (A0A1B1KJ01 1-214): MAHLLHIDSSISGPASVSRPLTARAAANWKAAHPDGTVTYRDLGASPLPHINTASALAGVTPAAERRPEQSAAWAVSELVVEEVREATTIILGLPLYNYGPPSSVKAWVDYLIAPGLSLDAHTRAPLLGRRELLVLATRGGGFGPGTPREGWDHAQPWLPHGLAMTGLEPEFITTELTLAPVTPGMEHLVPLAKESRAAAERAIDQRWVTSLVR

PaerAzoR [6] = biological target: T6, PaerAzoR (Pseudomonas aeruginosa, UniProt Q9I5F3); experiment: methyl red degradation at […] nm with BNAH as electron donor, reconstituted cell-free (PURE) mix; settings: 30 uM methyl red; 150 uM BNAH; 50 uM FMN; 100 mM sodium phosphate pH 6; 25 °C
T6 construct: gene azoR1; codon-optimised gene in pET-24a(+); cell-free synthesis (PUREfrex2.0), unpurified
T6 sequence (Q9I5F3 1-212): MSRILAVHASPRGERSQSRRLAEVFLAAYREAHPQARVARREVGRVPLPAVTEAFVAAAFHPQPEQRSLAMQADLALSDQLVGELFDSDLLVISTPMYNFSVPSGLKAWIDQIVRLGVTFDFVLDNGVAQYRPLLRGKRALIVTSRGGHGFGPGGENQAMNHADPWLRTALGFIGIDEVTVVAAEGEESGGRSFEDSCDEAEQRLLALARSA

EfaeAzoR [7] = biological target: T1, EfaeAzoR; experiment: methyl red degradation at […] nm, reconstituted cell-free (PURE) mix; settings: 150 uM NADH, NADPH or BNAH; 50 uM FMN; 100 mM sodium phosphate pH 6; 25 °C; 30 uM dye
RopaAzoR [8] = biological target: T5, RopaAzoR; experiment: as above; settings: 150 uM NADH; 50 uM FMN; 100 mM sodium phosphate pH 6; 25 °C; 30 uM dye
PaerAzoR [9] = biological target: T6, PaerAzoR; experiment: as above; settings: 150 uM BNAH; 50 uM FMN; 100 mM sodium phosphate pH 6; 25 °C; 30 uM dye
StypAzoR [10] = biological target: T2, StypAzoR; experiment: as above; settings: 150 uM NADH, NADPH or BNAH; 50 uM FMN; 100 mM sodium phosphate pH 6; 25 °C; 30 uM dye
TvarAzoR [11] = biological target: T4, TvarAzoR; experiment: as above; settings: 150 uM NADH, NADPH or BNAH; 50 uM FMN; 100 mM sodium phosphate pH 6; 25 °C; 30 uM dye
RferAzoR [12] = biological target: T3, RferAzoR; experiment: as above; settings: 150 uM NADH, NADPH or BNAH; 50 uM FMN; 100 mM sodium phosphate pH 6; 25 °C; 30 uM dye

NC(=O)C1=CN([C@@H]2O[C@H](COP(=O)(O)OP(=O)(O)OC[C@H]3O[C@@H](n4cnc5c(N)ncnc54)[C@H](O)[C@@H]3O)[C@@H](O)[C@H]2O)C=CC1 [NADH]
methyl red degradation at 430 nm with NADH as electron donor, reconstituted cell (EfaeAzoR [1]): EfaeAzoR seems to have a strong preference for NADH

CC(=O)Nc1ccc(S(=O)(=O)O)c2cc(S(=O)(=O)O)c(N=Nc3ccc(N=Nc4ccc(S(=O)(=O)O)cc4)c4ccc(S(=O)(=O)O)cc34)c(O)c12 [Brilliant Black]
Brilliant Black degradation at 570 nm, reconstituted cell-free (PURE) mix (StypAzoR [2]): All five enzymes and RopaAzoR were able to degrade BB. | Brilliant Black degradation at 570 nm, reconstituted cell-free (PURE) mix (RferAzoR [3]): All five enzymes and RopaAzoR were able to degrade BB. | Brilliant Black degradation at 570 nm, reconstituted cell-free (PURE) mix (TvarAzoR [4]): All five enzymes and RopaAzoR were able to degrade BB. | Brilliant Black degradation at 570 nm, reconstituted cell-free (PURE) mix (RopaAzoR [5]): All five enzymes and RopaAzoR were able to degrade BB.

NC(=O)C1=CN(Cc2ccccc2)C=CC1 [BNAH, 1‐benzyl‐1,4‐dihydronicotinamide]
methyl red degradation at 430 nm with BNAH as electron donor, reconstituted cell (PaerAzoR [6]): PaerAzoR catalyzed the degradation of methyl red using BNAH as co‐substrate

CN(C)c1ccc(/N=N/c2ccccc2C(=O)O)cc1 [methyl red]
methyl red degradation at 430 nm, reconstituted cell-free (PURE) mix (EfaeAzoR [7]): Noteworthy are the very high activities of StypAzoR and EfaeAzoR | methyl red degradation at 430 nm, reconstituted cell-free (PURE) mix (RopaAzoR [8]): active RopaAzoR was synthesized, and substrate degradation was detected in the activity assay | methyl red degradation at 430 nm, reconstituted cell-free (PURE) mix (PaerAzoR [9]): PaerAzoR catalyzed the degradation of methyl red using BNAH as co‐substrate | methyl red degradation at 430 nm, reconstituted cell-free (PURE) mix (StypAzoR [10]): all undescribed enzymes catalyzed the degradation of methyl red | methyl red degradation at 430 nm, reconstituted cell-free (PURE) mix (TvarAzoR [11]): all undescribed enzymes catalyzed the degradation of methyl red | methyl red degradation at 430 nm, reconstituted cell-free (PURE) mix (RferAzoR [12]): all undescribed enzymes catalyzed the degradation of methyl red
